pEC50: −log10 of the molar value. Converted amounts (≈) assume the structure as drawn. Where two headings read alike, the source gives them in different places.
Legend:
[1] = test system: herpes viruses; experiment: antiherpes activity of methanocarbathymine conformers (test not specified); format: cell-based
[2] = test system: TK + VZV YS strain; experiment: VZV plaque reduction, TK+ VZV YS strain; format: cell-based, Varicella zoster virus; conditions: read-out: Antiviral activity (Plaque reduction) EC50, TK + VZV YS strain
[3] = test system: TK + VZV OKA strain; experiment: VZV plaque reduction, TK+ VZV OKA strain; format: cell-based, Varicella zoster virus; conditions: read-out: Antiviral activity (Plaque reduction) EC50, TK + VZV OKA strain
Protocol: (§1) The virus plaque reduction assay proceeds generally as follows. […] The drug concentrations utilized are usually 200 down to 0.06 μg/mL. The virus to be used is diluted in MEM containing 10% FBS to a desired concentration which will give 20–30 plaques/well. The media are then aspirated from the wells, and 0.2 mL of virus is added to each well in duplicate with 0.2 mL of media being added to drug toxicity wells. The plates are then incubated for 1 hr with shaking every 15 min. After the incubation period, an equal amount of 1% agarose is added to an equal volume of each drug dilution. […] The drug agarose mixture is applied to each well in 2 mL volume, and the plates are incubated for 3 days, after which the cells are stained with a […] of neutral red. At the end of the 4–6 h incubation period, the stain is aspirated, and plaques are counted using a stereomicroscope at 10× magnification.

[4] = test system: TK − VZV 07/1 strain; experiment: VZV plaque reduction, TK- VZV 07/1 strain; format: cell-based, Varicella zoster virus; conditions: read-out: Antiviral activity (Plaque reduction) EC50, TK − VZV 07/1 strain
Protocol: as §1

[5] = test system: TK − VZV YS/R strain; experiment: VZV plaque reduction, TK- VZV YS/R strain; format: cell-based, Varicella zoster virus; conditions: read-out: Antiviral activity (Plaque reduction) EC50, TK − VZV YS/R strain
Protocol: as §1

[6] = test system: human foreskin fibroblast (HFF) cells
[7] = test system: HSV-1; experiment: cytopathogenic effect (CPE) inhibition assay, HSV-1 in HFF; conditions: for HSV-1 (HFF) CPE inhib. EC50: HFF cells, CPE inhibition
[8] = test system: HSV-2; experiment: cytopathogenic effect (CPE) inhibition assay, HSV-2 in HFF; conditions: HFF cells
[9] = test system: Vaccinia; conditions: HFF cells; CPE inhibition
[10] = test system: Vaccinia; conditions: HFF cells; plaque reduction
[11] = test system: Cowpox; conditions: HFF cells; CPE inhibition
[12] = test system: Cowpox; conditions: HFF cells; plaque reduction
[13] = test system: HSV-1; experiment: virus plaque reduction assay, HSV-1 in HFF
[14] = test system: HSV-2; experiment: virus plaque reduction assay, HSV-2 in HFF
[15] = cytotoxicity (cell morphology MCC, cell growth CC50), Table 3; conditions: for Cytotoxicity, Cell Morphology (MCC): minimum cytotoxic concentration causing microscopically detectable alteration of cell morphology; for CC50: read-out: Cytotoxicity CC50, cell growth
[16] = plaque reduction assay, more potent than acyclovir

Cc1cn([C@@]23C[C@H](O)[C@@H](CO)[C@@H]2C3)c(=O)[nH]c1=O
antiherpes activity (in words) [1]: inactive

O=c1[nH]c(=O)n([C@H]2C[C@H](O)[C@]3(CO)C[C@H]23)cc1/C=C/Br [(N)-MCBVDU (5)]
pEC50 [2]: 8.15
pEC50 [3]: 8.30
pEC50 [4]: < 5.30
pEC50 [5]: < 5.30
HSV-1 (HFF) CPE inhib. CC50 [6]: >100 µg/mL
HSV-2 (HFF) CPE inhib. CC50 [6]: >100 µg/mL
HSV-1 (HFF) CPE inhib. EC50 [7]: 2.2 µg/mL
HSV-2 (HFF) CPE inhib. EC50 [8]: >100 µg/mL
SI (CC50/EC50), HSV-2 CPE inhib. [8]: 0

O=c1[nH]c(=O)n(C2CC(O)C3(CO)CC23)cc1Br (centres unmarked) [(N)-MCdBrU (3)]
pEC50 [2]: 7.52
pEC50 [3]: 6.05
pEC50 [4]: 3.97
pEC50 [5]: 4.43
SI (CC50/EC50), Vaccinia CPE inhib. [9]: >156
Vaccinia (HFF) CPE inhib. EC50 [9]: 0.64 µg/mL
SI (CC50/EC50), Vaccinia Plaque red'n [10]: 38.5
Vaccinia (HFF) Plaque red'n EC50 [10]: 2.6 µg/mL
Cowpox (HFF) CPE inhib. EC50 [11]: 11.5 µg/mL
SI (CC50/EC50), Cowpox CPE inhib. [11]: 8.7
Cowpox (HFF) Plaque red'n EC50 [12]: 3.4 µg/mL
SI (CC50/EC50), Cowpox Plaque red'n [12]: 29.4
HSV-1 (HFF) CPE inhib. CC50 [6]: >100 µg/mL
HSV-1 (HFF) plaque red'n CC50 [6]: >100 µg/mL
HSV-2 (HFF) CPE inhib. CC50 [6]: >100 µg/mL
HSV-2 (HFF) plaque red'n CC50 [6]: >100 µg/mL
Cowpox (HFF) CPE inhib. CC50 ([6]; HFF cells, column of Cowpox CPE inhibition): >100 µg/mL
Cowpox (HFF) Plaque red'n CC50 ([6]; HFF cells, column of Cowpox plaque reduction): >100 µg/mL
Vaccinia (HFF) CPE inhib. CC50 ([6]; HFF cells, column of Vaccinia CPE inhibition): >100 µg/mL
Vaccinia (HFF) Plaque red'n CC50 ([6]; HFF cells, column of Vaccinia plaque reduction): >100 µg/mL
HSV-1 (HFF) plaque red'n EC50 ([13]; HFF cells, plaque reduction): 0.03 µg/mL
SI (CC50/EC50), HSV-1 plaque red'n ([13]; HFF cells, plaque reduction): 3333
HSV-2 (HFF) plaque red'n EC50 ([14]; HFF cells, plaque reduction): 0.12 µg/mL
SI (CC50/EC50), HSV-2 plaque red'n ([14]; HFF cells, plaque reduction): 833
HSV-1 (HFF) CPE inhib. EC50 [7]: 0.39 µg/mL
HSV-2 (HFF) CPE inhib. EC50 [8]: 0.70 µg/mL
SI (CC50/EC50), HSV-2 CPE inhib. [8]: >142

O=c1[nH]c(=O)n([C@H]2C[C@H](O)[C@]3(CO)C[C@H]23)cc1I [(N)-MCdIU (4)]
pEC50 [3]: 6.80
pEC50 [4]: < 5.30
pEC50 [5]: 5.52
HSV-1 (HFF) CPE inhib. CC50 ([6]; HFF cells, column of HSV-1 CPE inhibition): >100 µg/mL
HSV-2 (HFF) CPE inhib. CC50 ([6]; HFF cells, column of HSV-2 CPE inhibition): >100 µg/mL
HSV-1 (HFF) CPE inhib. EC50 [7]: >100 µg/mL
HSV-2 (HFF) CPE inhib. EC50 [8]: 3.3 µg/mL
SI (CC50/EC50), HSV-2 CPE inhib. [8]: 30.3
Cytotoxicity, Cell Morphology (MCC) [15]: >5 μM
CC50 [15]: > 200000 nM

Cc1cn([C@H]2C[C@H](O)[C@]3(CO)C[C@H]23)c(=O)[nH]c1=O [(North)-methanocarbathymine, reference compound]
potency relative to acyclovir against HSV-1 [13, 16]: 30 times
potency relative to acyclovir against HSV-2 [14, 16]: 30 times

Nc1nc2c(ncn2COCCO)c(=O)[nH]1 [ACV, acyclovir, reference compound]
EC50 ([7]; Human alphaherpesvirus 1, HFF, read-out: HSV-1 (HFF) CPE inhib. EC50): 0.5 µg/mL (≈ 2.22 µM)

O=c1[nH]c(=O)n([C@H]2C[C@H](O)[C@@H](CO)O2)cc1/C=C/Br [BVDU, reference compound]
pEC50 [2]: 8.10
pEC50 [3]: 8.30
pEC50 [4]: < 3.82
pEC50 [5]: < 3.82
Cytotoxicity, Cell Morphology (MCC) [15]: >150 μM
CC50 [15]: > 400000 nM
